# Laboratory results from US10111847B2, “Compounds and methods for modulating vascular injury” (The Regents of the University of California, priority 2012, dated 2018).
# Legend:
# [1] = test system: human saphenous vein vascular smooth muscle (sv-VSMC) cells; experiment: TNFα induced superoxide production (DHE) in sv-VSMC (Maresin-1); type: cell-based; conditions: 100 nM; TNFα 10 ng/ml 4 hr
# Protocol: (§1) Mar-1. Cells were grown in 8-well chamber slides at a density of 15000 cells/well for 2 days for VSMCs and 50000 cells/well for 2 days for ECs in a 96 well plate. After treatments, cells were incubated with dihydroethidium (DHE, 3 μM, Invitrogen) or CellRox (Invitrogen Inc, 5 μM for ECs) in media for 30 minutes at 37° C. in a humidified chamber with 5% CO2 protected from light. DAPI nuclear counter staining was utilized for DHE staining. For DHE, fluorescence was detected with TRITC filter allowing the detection of the DHE emission wavelength of 590-620 nm. Fluorescence quantitation was performed using ImageJ analysis software. For ECs, fluorescence measurements were taken using a Spectramax M2e plate reader.
# (§2) FIGS. 13A-13D. Representative merged images of DHE staining, counterstained with DAPI. (A), Negative control. (B), TNFα at 10 ng/ml for 4 hr. […] (E) Quantitative comparison of DHE staining intensity in the nucleus of human saphenous vein vascular smooth muscle (sv-VSMC) cells, treated with TNFα and 7S and 7R-Maresin-1 with and without pertussis toxin. (F) Quantitative comparison of cellular ROS production by CellRox (Life technologies, Carlsbad, Calif.) in human saphenous vein endothelial (EC) cells treated with TNFα (1 ng/nil) and 7S-Maresin-1 (N>=3). […]
# [2] = test system: human saphenous vein endothelial (EC) cells; experiment: TNFα induced cellular ROS production (CellRox) in EC (Maresin-1); type: cell-based; conditions: TNFα 1 ng/ml
# Protocol: as §1, §2
# [3] = test system: TNF-α-stimulated EC; experiment: U937 monocyte adhesion to TNF-α-stimulated EC (Maresin-1); type: cell-based, human; conditions: 1-100 nM, 30 min pretreatment; TNFα 1 ng/ml 4 hr
# Protocol: MaR-1. VSMCs and ECs were seeded on a 96 well plate (20000 cells/well for VSMCs and 50000 cells/well for ECs) and after 2 days, were treated with Maresin-1 (1-100 nM) for 30 min followed by TNF-α for 4 hr and then calcein AM-labeled U937 cells were added on top of the VSMCs. After 15-minute incubation at 37 C, unbound cells were washed off with cold PBS. Fluorescence measurements (ex 494 nm, em 517 nm) of bound monocytes were taken with a plate reader. For capturing images, the assay was performed in 8-well chamber slides (Nunc Labtek) and images were taken after cold PBS wash (three times) following U937 incubation.
# (§3) FIGS. 15A-15D. Representative images of Calcein-AM labeled U937 monocytes adhered to human sv-VSMCs pretreated with vehicle (A, B) or 7S-Maresin-1 (C) or 7S-Maresin-1 and pertussis toxin (D) for 30 min, followed by TNFα at 10 ng/ml for 4 hr (B, C, D). (E) Quantitative analysis of U937 adhesion assay in human sv-VSMCs and (F) human sv-ECs (1 ng/ml TNFα used for EC cells). […] Bar graph represents net quantitative densitometry analysis. […] Expression of MCP-1 was measured by qRT-PCR, and normalized to unstimulated cells (n=3, results are mean±SEM, P<0.05 for Mar-1 (10 and 100 nM) vs TNF alone, unpaired t-test).
# [4] = test system: VCAM-1; experiment: VCAM-1 expression in TNFα treated VSMC, western blot; type: cell-based, human; conditions: 10 and 100 nM; TNFα 10 ng/ml 4 hr; P=0.20 compared to TNFα
# Protocol: Mar-1. VSMCs and ECs were lysed in buffer (20 mM Tris-Hcl, 137 mM NaCl, 10% Glycerol, 1% NP-40) with protease and phosphatase inhibitors (Halt inhibitor capsules, Pierce, Inc) by sonication on ice. The lysates were instantly snap frozen in liquid nitrogen and thawed back later for western blotting. After centrifugation (15,000 g for 20 minutes), the whole cell extract (supernatant) was collected and was heated at 100° C. in Laemlli buffer for 6 minutes. Lysates were run on Mini-Protean TGX gels
# (Biorad) and transferred on PVDF membranes which were probed with appropriate primary and secondary antibodies and visualized for quantitation using q-dot nanocrystals (Life Technologies, Inc).
# as §3
structure (smiles),measurement,setting,value
"CC/C=C\C/C=C\C[C@H](O)\C=C/C=C/C=C/[C@@H](O)C/C=C\CCC(=O)O [7S-Maresin-1, 7S,14R-dihydroxydocosa-4Z,8E,10Z,12Z,16Z,19Z-hexaenoic acid]",TNF-α-induced superoxide production in VSMC,[1],significantly reduced
same,TNF-α-induced superoxide production in EC,[2],significantly reduced
same,monocyte adhesion (U937) to TNF-α-stimulated EC,[3],dose-dependent inhibition
same,VCAM-1 expression by Western blot,[4],inhibition of VCAM-1 expression
